From publication PMC12892976, “Alkylation-based optimization of antifungal FPPS inhibitors yields a potent, broad-spectrum lipophilic zoledronate derivative” (mBio, 2025)
Where two headings read alike, the source gives them in different places.

Assays:
Candida albicans = test: checkerboard drug interaction (FICI, MICc);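 on all read-outs here: antifungal plus FPPS inhibitor combinations on Candida albicans tested by a simplified diagonal checkerboard screen, with FICI calculated under the Loewe additivity model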; assay type: cell-based; conditions: C. albicans; for INH FD (MIC-MICc fold decrease): fold decrease of inhibitor MIC
Procedure: (§1) Drug interactions between antifungals and FPPS inhibitors were investigated using a simplified checkerboard diagonal screening method ([45]). […] FICIs were determined according to the Loewe additivity model ([17]).

Aspergillus flavus [1] = test: checkerboard drug interaction (FICI, MICc);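 further: simplified diagonal checkerboard screen pairing azole antifungals with FPPS inhibitors, FICI calculated under the Loewe additivity model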; assay type: cell-based; design: INH MICc (KET:INH) / INH MICc (FLC:INH): unit not given beside the values; conditions: A. flavus
Aspergillus fumigatus [2] = test: checkerboard drug interaction (FICI, MICc);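 on all read-outs here: simplified diagonal checkerboard screen pairing antifungals with FPPS inhibitors against Aspergillus fumigatus, with FICI calculated under the Loewe additivity model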; assay type: cell-based; conditions: A. fumigatus; for INH FD (MIC-MICc fold decrease): fold decrease of inhibitor MIC
Procedure: as §1

Trichophyton rubrum [3] = test: checkerboard drug interaction (FICI, MICc);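 further: simplified diagonal checkerboard screen pairing azole antifungals with FPPS inhibitors, FICI calculated under the Loewe additivity model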; assay type: cell-based; conditions: T. rubrum
Procedure: as §1

HEK-293T cells = test: MTT reduction cytotoxicity assay; assay type: cell-based; conditions: Homo sapiens, HEK-293T, 72 h, MTT, 72 h
eight fungal species [4] = test: MIC/MFC summary across the eight fungal species of Table 1; assay type: cell-based
Procedure: The antifungal activity of these compounds was evaluated according to CLSI guidelines ([16]).

eight fungal species [5] = test: checkerboard interaction with azoles, summary across the eight species; assay type: cell-based; conditions: geometric mean MIC in combination with azoles
Text: Synergy between lipophilic FPPS inhibitors and azole antifungals was investigated by determining the fractional inhibitory concentration index (FICI) (Fig. 2; Table S1 Fig. S1) ([17]). […]. Derivatives PLA9 and 11, and PDA9, 11, and 12 antagonized azoles in C. albicans, C. neoformans, and C. deuterogattii, yet were largely synergistic in C. glabrata and S. cerevisiae. […].

[6] = tested on: Cryptococcus deuterogattii; test: MIC/MFC broth microdilution (CLSI); conditions: Cryptococcus deuterogattii;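 further: broth microdilution per CLSI M27-Ed4. MFC is the lowest concentration yielding no colonies when MIC broths are subcultured onto SDA plates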
Procedure: (§2) Antifungal susceptibility was determined by broth microdilution according to the CLSI guidelines described in M27-Ed4 ([16]). […] MFC was determined by back-plating drug-treated cultures from MIC broths onto SDA plates. The MFC was defined as the lowest concentration from which no colonies could be cultured.

Cryptococcus neoformans = test: MIC/MFC broth microdilution (CLSI); conditions: Cryptococcus neoformans;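 further: susceptibility testing followed the CLSI M27-Ed4 broth microdilution document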
Procedure: as §2

Candida glabrata = test: MIC/MFC broth microdilution (CLSI); conditions: Nakaseomyces glabratus, CBS138;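 further: broth microdilution following CLSI M27-Ed4, MFC taken as the lowest drug level yielding no growth once MIC wells were subcultured on SDA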
Procedure: as §2

Aspergillus flavus [7] = test: MIC/MFC broth microdilution (CLSI); conditions: ATCC204304
Procedure: as §2

Aspergillus fumigatus [8] = test: MIC/MFC broth microdilution (CLSI); conditions: ATCC204305
Procedure: as §2

Trichophyton rubrum [9] = test: MIC/MFC broth microdilution (CLSI); conditions: Trichophyton rubrum
Procedure: as §2

[10] = KET:INH combination, MIC of the inhibitor in combination with KET
[11] = KET:INH combination, fold decrease of KET MIC
[12] = Fractional Inhibitory Concentration Index, fluconazole + inhibitor
[13] = Fractional Inhibitory Concentration Index, itraconazole + inhibitor
[14] = Fractional Inhibitory Concentration Index, ketoconazole + inhibitor
[15] = MIC of the inhibitor in combination with fluconazole
[16] = MIC of the inhibitor in combination with itraconazole
[17] = MIC of the inhibitor in combination with ketoconazole
[18] = MIC-MICc fold decrease of fluconazole, negative = increase
[19] = MIC-MICc fold decrease of itraconazole, negative = increase
[20] = MIC-MICc fold decrease of ketoconazole, negative = increase
[21] = MIC-MICc fold decrease of the inhibitor, with fluconazole
[22] = MIC-MICc fold decrease of the inhibitor, with itraconazole
[23] = MIC-MICc fold decrease of the inhibitor, with ketoconazole

CCCCCCCCCN1CCC[C@H]1C(=O)N[C@@H](CC(=O)OC)C(=O)OC [dmPLA9]
52.3: GM fungal MICc (eight fungal species [5])
3: FICI (Aspergillus fumigatus [2]; FLC:INH combination)
≥4: FICI (FLC:INH) (Trichophyton rubrum [3]; [12])
4: INH MICc (Aspergillus fumigatus [2]; ITR:INH combination, MIC of the inhibitor in combination with ITR) | KET MICc (Aspergillus fumigatus [2]; KET:INH combination, MIC of KET in combination with the inhibitor)
0.125: ITR MICc (Aspergillus fumigatus [2]; ITR:INH combination, MIC of ITR in combination with the inhibitor)
-2: KET FD (MIC-MICc fold decrease) (Candida albicans; [11]) | INH FD (MIC-MICc fold decrease) (Aspergillus fumigatus [2]; FLC:INH combination) | FLC FD (FLC:INH) (Trichophyton rubrum [3]; [18]) | INH FD (FLC:INH) (Trichophyton rubrum [3]; [21])
128: INH MICc (FLC:INH) (Aspergillus flavus [1]; [15]) | INH MICc (KET:INH) (Aspergillus flavus [1]; [17]) | FLC MICc (Aspergillus fumigatus [2]; FLC:INH combination, MIC of FLC in combination with the inhibitor) | INH MICc (Aspergillus fumigatus [2]; [10]) | INH MICc (ITR:INH) (Trichophyton rubrum [3]; [16]) | INH MICc (KET:INH) (Trichophyton rubrum [3]; [17])
256: INH MICc (ITR:INH) (Aspergillus flavus [1]; [16]) | INH MICc (Aspergillus fumigatus [2]; FLC:INH combination, MIC of the inhibitor in combination with FLC) | INH MICc (FLC:INH) (Trichophyton rubrum [3]; [15])
1: FICI (KET:INH) (Aspergillus flavus [1]; [14]) | FLC FD (FLC:INH) (Aspergillus flavus [1]; [18]) | ITR FD (ITR:INH) (Aspergillus flavus [1]; [19]) | INH FD (ITR:INH) (Aspergillus flavus [1]; [22]) | FLC FD (MIC-MICc fold decrease) (Aspergillus fumigatus [2]; FLC:INH combination, fold decrease of FLC MIC) | ITR FD (MIC-MICc fold decrease) (Aspergillus fumigatus [2]; ITR:INH combination, fold decrease of ITR MIC) | KET FD (MIC-MICc fold decrease) (Aspergillus fumigatus [2]; [11]) | INH FD (MIC-MICc fold decrease) (Aspergillus fumigatus [2]; KET:INH combination) | KET FD (KET:INH) (Trichophyton rubrum [3]; [20]) | INH FD (ITR:INH) (Trichophyton rubrum [3]; [22]) | INH FD (KET:INH) (Trichophyton rubrum [3]; [23])
41.4 µg/mL: IC50 (HEK-293T cells; HEK-293T cells, read-out: IC50) | IC50 (HEK-293T cells; read-out: HEK IC50)
1.5: FICI (FLC:INH) (Aspergillus flavus [1]; [12]) | FICI (ITR:INH) (Trichophyton rubrum [3]; [13])
128 µg/mL: MIC (eight fungal species [4]; geometric mean across eight species, read-out: GM fungal MIC) | MIC (eight fungal species [4]; read-out: Geometric mean MIC) | MIC [6] | MIC (Cryptococcus neoformans) | MIC (Candida glabrata) | MIC (Aspergillus fumigatus [8]) | MIC (Trichophyton rubrum [9])
> 128 µg/mL: MFC [6] | MFC (Cryptococcus neoformans) | MFC (Candida glabrata) | MFC (Aspergillus flavus [7]) | MIC (Aspergillus flavus [7]) | MFC (Aspergillus fumigatus [8]) | MFC (Trichophyton rubrum [9])
1.03: FICI (Aspergillus fumigatus [2]; ITR:INH combination)
197 µg/mL: MFC (eight fungal species [4]; across eight species, read-out: Geometric mean MFC)
2: FICI (ITR:INH) (Aspergillus flavus [1]; [13]) | KET FD (KET:INH) (Aspergillus flavus [1]; [20]) | INH FD (FLC:INH) (Aspergillus flavus [1]; [21]) | INH FD (KET:INH) (Aspergillus flavus [1]; [23]) | FICI (Aspergillus fumigatus [2]; KET:INH combination) | FICI (KET:INH) (Trichophyton rubrum [3]; [14]) | ITR FD (ITR:INH) (Trichophyton rubrum [3]; [19])
32: INH FD (MIC-MICc fold decrease) (Aspergillus fumigatus [2]; ITR:INH combination)
8: INH FD (MIC-MICc fold decrease) (Candida albicans; ITR:INH combination) | INH FD (MIC-MICc fold decrease) (Candida albicans; KET:INH combination)
16: INH MICc (Candida albicans; [10])
2.13: FICI (Candida albicans; KET:INH combination)
